Several values for one entry are separate records, joined by “and”; a condition that tells them apart may be missing. Identical values can stand only once.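 Interpolation was linear, between the two tested concentrations surrounding the appropriate level; five concentrations were tested over 48 hours in 96-well plates. GI50 = concentration required for 50% inhibition of growth. At the TGI there is no net growth.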

What all share (test): NCI anticancer screen, dose series, 48 h
In assay [1] the test system is HL-60(TB) leukemia.
The test system of assay [2] is IGROV1 ovarian.
The subject of assay [3] is RXF 393 renal.
The subject of assay [4] is M19-MEL melanoma.
The subject of assay [5] is HOP-62 NSCLC.
Assay [6] concerns HOP-92 NSCLC.
Assay [7] relates to LOX IMVI melanoma.
Assay [8] relates to MDA-MB-435.
Assay [9] concerns MCF7 breast.

Take `Cc1ccc(Sc2ccc(C)cc2[N+](=O)[O-])c([N+](=O)[O-])c1`: the TGI in [1], in assay [2], in assay [3], in assay [4], in assay [5] and in assay [6] was more than 100 µM in each case. Moreover, the TGI in assay [7] was more than 100 µM.

In the case of `OCC1OC(n2cnc3c(=S)nc[nH]c32)C(O)C1O` (configuration not stated), the GI50 was 3.82 µM in [1]; 12.2 µM in [2]; more than 100 µM in assay [3]; 3.89 µM in [8]; 1820 nM in assay [9]; 1.48 µM in assay [5]. Also, the GI50 in [6] was 698 nM; in assay [7] it was 0.705 µM. For the same molecule, the TGI was more than 2210 µM in [1]; 2490 µM and > 100 µM in assay [2]; more than 2500 µM in [3]; more than 2500 µM in assay [4]; more than 2500 µM in assay [8]; more than 2500 µM in assay [9]. For the same molecule, the TGI in [5] was more than 2500 µM; in [6] it was more than 1780 µM; in assay [7] it was more than 2500 µM.

As for `Nc1ccc(-c2ccc(N)cc2I)c(I)c1`, the GI50 was 18.4 µM in assay [1]; 13.9 µM in assay [2]; 10.9 µM in [3]; 3.72 µM in assay [8]; 18400 nM in assay [9]; 17.5 µM in [5]. In addition, the GI50 in assay [6] is 11200 nM; in assay [7], 16.3 µM. Further, the TGI stood at 47.6 µM in assay [1]; 56.1 µM in assay [2]; 28 µM in assay [3]; 16.2 µM in assay [8]; 58.1 µM in [9]; 39.4 µM in assay [5]. The TGI in assay [6] turned out to be 37 µM; in [7] it was 31.2 µM.

With `COC(=O)C(F)C(Br)C(=O)OC` (configuration not stated), the TGI in assay [1] is 3.93 µM; in assay [2], more than 20.5 µM; in assay [3], 6.95 µM; in assay [8] it was 27.3 µM; in assay [9], 15.6 µM; in assay [5], 35.7 µM. Further, the values for the TGI in [6] and in assay [7] were 4.96 µM and 32 µM, respectively.

Take `CS(=O)(=O)Nc1ccc(N=Cc2c(O)[nH]c3ccccc23)cc1`: the GI50 is more than 25 µM in [1]; more than 25 µM in assay [2]; more than 25 µM in assay [3]; more than 25 µM in [8]; more than 25000 nM in assay [9]; more than 25 µM in assay [5]. For the same molecule, the GI50 was more than 25000 nM in assay [6] and more than 25 µM in assay [7]. The TGI in assay [1], in assay [2], in assay [3], in assay [8], in assay [9] and in [5] was more than 25 µM each time. The TGI in assay [6] and in assay [7] was more than 25 µM in each case.

Take `Cc1ccc2c(c1)C(=O)c1c-2n(CCCBr)c(=O)c2cc([N+](=O)[O-])ccc12`: the GI50 in assay [1] is 18.3 µM; in assay [2], 6.65 µM; in assay [3], more than 100 µM; in [8], more than 100 µM; in [9], 4460 nM; in assay [5], 24.4 µM. Besides, the GI50 was 29400 nM in assay [6] and 17.9 µM in [7]. Also, the TGI was more than 100 µM in assay [1]; 65.8 µM in assay [2]; more than 100 µM in assay [3]; more than 100 µM in [8]; more than 100 µM in assay [9]; more than 100 µM in [5]. Further, the TGI in assay [6] and in assay [7] was more than 100 µM each time.

As for `CN(C)CC1CCCCCC(CN(C)C)C1=O` (configuration not stated), the GI50 in [1] was 2.24 µM; in assay [2], 15.1 µM; in assay [3] it was 1.58 µM; in [8], 2.93 µM; in assay [9], 2850 nM; in assay [5], 13 µM. The GI50 is 2690 nM in assay [6] and 7.68 µM in assay [7]. For the same molecule, the TGI was 8.57 µM in assay [1]; 36.3 µM in [2]; 3.35 µM in assay [3]; 13.2 µM in assay [8]; 15.3 µM in assay [9]; 27.3 µM in [5]. Besides, the TGI in assay [6] is 8.11 µM; in assay [7] it was 25 µM.

Consider `CN(C(=O)c1ccncc1)c1ccccc1`, for which the TGI in [1], in assay [2], in assay [3], in assay [8], in [9] and in assay [5] was more than 100 µM in each case. Besides, the TGI in [6] and in assay [7] was more than 100 µM throughout.

In the case of `CC(C)c1ccc(Nc2nccc(-c3cnn4ncccc34)n2)cc1`, the GI50 was 1.32 µM in assay [1]; 0.502 µM in assay [2]; 0.28 µM in assay [3]; 0.567 µM in [8]; 65.3 nM in [9]; 0.563 µM in assay [5]. The figures for the GI50 in assay [6] and in assay [7] were 503 nM and 0.209 µM, respectively. The TGI was 4.12 µM in assay [1]; more than 19.5 µM in assay [2]; 0.827 µM in assay [3]; 1.66 µM in [8]; 2.59 µM in assay [5]; 1.59 µM in assay [6]. The TGI in assay [7] was more than 7.75 µM.

With `O=C(N/N=C/c1cc([N+](=O)[O-])ccc1O)c1cccc2ccccc12`, the GI50 is 2.27 µM in [1]; 2.36 µM in [2]; 4.14 µM in assay [3]; 7.18 µM in assay [8]; 2490 nM in assay [9]; 3.73 µM in assay [5]. Further, the GI50 in [6] is 1260 nM; in [7], 2.02 µM. In addition, the TGI in [1] was 6.02 µM; in assay [2], 8.47 µM; in assay [3] it was 35.1 µM; in assay [8] it was more than 100 µM; in assay [9], 13.4 µM; in assay [5], 35.2 µM. Further, the TGI came out at 13 µM in [6] and 53.4 µM in [7].

For `O=C(CCc1cc(-c2ccccc2)nc(=S)[nH]1)Nc1ccccc1[N+](=O)[O-]`, the TGI in [1], in assay [2], in assay [3], in [4], in assay [5] and in assay [6] was more than 100 µM in each case. In [7], this molecule yielded a TGI of more than 100 µM.

The values above are taken from PubChem BioAssay (NCI).
